Data: patent USRE48461E1, “Modulation of androgen receptor expression” (Ionis Pharmaceuticals, Inc., priority 2012, dated 2021)
Oligonucleotides are written 5' to 3', each unit as a sugar letter and its base; * is a phosphorothioate linkage, no mark a phosphodiester; rarer units and linkages stand in square brackets, end groups in braces. Plain capitals give the bases only. e = 2'-O-(2-methoxyethyl) (MOE); k = constrained ethyl (cEt); [5mC] = 5-methylcytosine; d = 2'-deoxy (DNA)

Assays:
testosterone = assay: Serum testosterone levels in cynomolgus monkeys (ELISA); type: in vivo; settings: cynomolgus monkey, 40 mg/kg subcutaneously
Experimental: Serum testosterone protein levels were measured in the plasma with an ELISA kit (Enzo Life Sciences), following the manufacturer's instructions.

[1] = cynomolgus monkey, in vivo, sc, 40 mg/kg
Experimental: (§6) Prior to the study, the monkeys were kept in quarantine for a 30-day period, during which the animals were observed daily for general health. The monkeys were 2-4 years old and weighed between 2 and 4 kg. Thirteen groups of four randomly assigned male cynomolgus monkeys each were injected subcutaneously with ISIS oligonucleotide or PBS. PBS solution or ISIS oligonucleotides, at a dose of 40 mg/kg, were administered with a loading regimen consisting of four doses on the first week of the study (days 1, 3, 5, and 7), followed by a maintenance regimen consisting of once weekly administration starting on Day 14 (weeks 2 to 6). Subcutaneous injections were performed in clock-wise rotations at 4 sites on the back; one site per dose. The injection sites were delineated by tattoo, while sedated using ketamine, and were separated by a minimum of 3 cm.
To evaluate the effect of ISIS oligonucleotides on the overall health of the animals, body and organ weights were measured.

[2] = cynomolgus monkey, in vivo, sc, 40 mg/kg; remark: listed apart in the source
Experimental: as §6
To evaluate the effect of ISIS oligonucleotides on hepatic function, the monkeys were fasted overnight. Approximately, 1.5 mL of blood samples were collected on day 44 from all the study groups. Blood was collected in tubes without anticoagulant for serum separation. The tubes were kept at room temperature for a minimum of 90 min and then centrifuged at 3,000 rpm for 10 min. Levels of various liver function markers were measured using a Toshiba 120FR NEO chemistry analyzer (Toshiba Co., Japan).

[3] = cynomolgus monkey, in vivo, sc, 40 mg/kg; remark: listed apart in the source
[4] = cynomolgus monkey, in vivo, sc, 40 mg/kg; remark: listed apart in the source
[5] = cynomolgus monkey, in vivo, sc, 40 mg/kg; remark: listed apart in the source
Experimental: as §6
Kidney function was also assessed by urinalysis. Fresh urine from all animals was collected on day 44 using a clean cage pan on wet ice. Food was removed overnight the day before fresh urine collection was done but water was supplied. The total protein and creatinine levels were measured using a Toshiba 120FR NEO automated chemistry analyzer (Toshiba Co., Japan) and the protein to creatinine ratio was calculated.

[6] = cynomolgus monkey, in vivo, sc, 40 mg/kg; remark: listed apart in the source
[7] = cynomolgus monkey, in vivo; for Oligonucleotide concentration, Kidney / Oligonucleotide concentration, Liver: sc, 40 mg/kg
Experimental: as §6
The concentrations of the full-length oligonucleotide in the kidney and the liver of select treatment groups were measured. The method used is a modification of previously published methods (Leeds et al., 1996; Geary et al., 1999) which consist of a phenol-chloroform (liquid-liquid) extraction followed by a solid phase extraction.

full-length AR = assay: Western blot of full-length AR in MDV3100-resistant C4-2B cells; type: cell-based, human; settings: C4-2B MR cells (Example 16)
Experimental: (§1) ISIS 549372, ISIS 549434, and ISIS 554221 at 1 μM concentration of antisense oligonucleotide were each added to the culture media at 1 μM concentration for free uptake by the cells. After a treatment period of 2 days, cells were harvested in RIPA buffer containing protease inhibitors. The presence of bands for full-length AR, as well as the variant form, AR-V7, was detected by western blot using AR antibody (N-20, Santa Cruz).
(§2) Western analysis of full-length AR, as well as the AR-V7 variant, was also conducted in a manner similar to the assay described above.

total AR mRNA = assay: Total (full-length) AR mRNA in C4-2B MR cells, free uptake; type: cell-based, human; settings: C4-2B MR cells, 0.04-5.00 μM free uptake, 24 hrs
Experimental: Cells were plated at a density of 40,000 cells per well in 96-well plates and cultured in RPMI1640 medium with 10% fetal bovine serum. […] ISIS 549372, ISIS 549458, ISIS 549434, and ISIS 554221 were each added at 0.04 μM, 0.20 μM, 1.00 μM, and 5.00 μM concentrations of antisense oligonucleotide to culture media for free uptake by the cells. […] After a treatment period of 24 hrs, total AR mRNA levels were measured by quantitative real-time PCR using primer probe set RTS3559.

KLK3 mRNA = KLK3 mRNA (AR target gene) in C4-2B MR cells; type: cell-based, human; settings: C4-2B MR cells, 0.04-5.00 μM
KLK2 mRNA = KLK2 mRNA (AR target gene) in C4-2B MR cells; type: cell-based, human; settings: C4-2B MR cells, 0.04-5.00 μM
C4-2B MR cells = assay: Proliferation of MDV3100-resistant C4-2B cells (CellTiter 96); type: cell-based, human; settings: 0.04-5.00 μM, 6 days
Experimental: ISIS 549372, ISIS 549434, ISIS 549458, and ISIS 554221 were each added to the culture media at 0.04 μM, 0.20 μM, 1.00 μM, and 5.00 μM concentration of antisense oligonucleotide. ISIS 347526 was included as a negative control. After a treatment period of 6 days, the proliferative capacity of the cancer cells was measured with using CellTiter 96® AQueous One Solution Cell Proliferation kit (Promega), following the manufacturer's instructions. Results are presented in Table 41 as percent inhibition of proliferation, relative to non-treated cells.

AR full-length mRNA = AR full-length mRNA in CWR22-RV1 cells (RNAiMax, RTS3559); type: cell-based, human; settings: 6 days
Experimental: (§3) CWR22-RV1 cells were plated and transfected using RNAiMax reagent (Life Technologies) with ISIS oligonucleotides at 1.7 nM, 5.0 nM, 16.7 nM, or 50 nM concentrations. ISIS 347526 was included as a negative control. After a treatment period of 6 days, the target reduction and proliferative capacity of the cancer cells was measured.
(§4) Antisense inhibition of AR full-length mRNA was measured with the RTS3559 primer probe set. The results are presented in Table 63 as percent inhibition relative to non-treated cells. The reduction in V7 splice variant of the AR mRNA was also measured by RT-PCR using SYBR Green staining (Hu, R. et al., Cancer Res. 2009. 69: 16-22). The results are presented in Table 64, as percent reduction, relative to non-treated cells. Cell proliferation was measured with CellTiter 96® AQueous One Solution Cell Proliferation kit (Promega), following the manufacturer's instructions. Results are presented in Table 65 as percent inhibition of proliferation, relative to non-treated cells.

[8] = tested on: V7 splice variant of the AR mRNA; assay: AR V7 splice variant mRNA in CWR22-RV1 cells (RT-PCR SYBR Green); type: cell-based, human; settings: RNAiMax, 6 days
Experimental: as §3, §4

CWR22-RV1 cells = assay: CWR22-RV1 cell proliferation (CellTiter 96); type: cell-based, human; settings: RNAiMax, 6 days
Experimental: as §3, §4

AR mRNA = AR mRNA in C4-2B cells by free uptake (hAR_LTS00943); type: cell-based, human; settings: 24 hrs; for Percent inhibition of AR full-length mRNA: free uptake
Experimental: (§5) Cells were plated at a concentration of 1,000 cells/well in 96-well plates to measure cell proliferation, and at 4,000 cells/well to measure target reduction. ISIS 549458, ISIS 549372, ISIS 549434, and ISIS 554221 were added individually at 0.04 μM, 0.20 μM, 1.00 μM, or 5.00 μM. After an incubation period of 24 hrs, mRNA levels were measured using hAR_LTS00943.

C4-2B cells = assay: C4-2B cell proliferation by free uptake (MTT); type: cell-based, human; settings: day 6
Experimental: as §5
On day 6, cells plated for measuring proliferation were incubated with MTT reagent until the development of color. Color intensity was measured using a spectrophotometer at 490 nm.

AR-V7 = assay: Western blot of AR-V7 in MDV3100-resistant C4-2B cells; type: cell-based, human; settings: C4-2B MR cells (Example 16)
Experimental: as §1, §2

## ISIS 584269: antisense compound targeted to human AR (CCTTATGGATGCTGCT; 3-10-3 (S)-cEt gapmer, further chemistry not given here)
testosterone
  Serum testosterone level: 14.1 ng/mL
[1]
  Body Wt: 2.5 kg
  Heart weight: 8.7 g
  Kidney weight: 13 g
  Liver weight: 60 g
  Mesenteric lymph nodes weight: 3.6 g
  Spleen weight: 4.7 g
[2]
  ALT: 75 IU/L
  AST: 81 IU/L
  Albumin: 4.0 g/dL
[3]
  HCT: 41%
  Hemoglobin: 12.4 g/dL
  Platelets: 522000 µL
  RBC: 5.2e+06 µL
  WBC: 9800 µL
[4]
  Plasma BUN: 21.8 mg/dL
  Plasma Creatinine: 0.89 mg/dL
[5]
  Urine protein/creatinine ratio: 0.00
[6]
  C3 (% of baseline): 102 % of baseline
  CRP: 4.9 mg/dL
[7]
  K/L ratio: 4.0
  Oligonucleotide concentration, Kidney: 2823 μg/g tissue
  Oligonucleotide concentration, Liver: 698 μg/g tissue

## CTAAACTTCCCGTGGC (k[5mC]*kT*kA*dA*dA*d[5mC]*dT*dT*d[5mC]*d[5mC]*d[5mC]*dG*dT*kG*kG*k[5mC]) [ISIS 549434, targets 3'-end of exon 8]
full-length AR
  levels of full-length AR (Western analysis): reduced levels of full-length AR
Total AR mRNA
  total AR transcript levels: reduced total AR transcript levels in a dose dependent manner more extensively than treatment with ISIS 554221
KLK3 mRNA
  AR target gene KLK3 mRNA levels: reduced target gene levels in a dose dependent manner more extensively than treatment with ISIS 554221
KLK2 mRNA
  AR target gene KLK2 mRNA levels: reduced target gene levels in a dose dependent manner more extensively than treatment with ISIS 554221
C4-2B MR cells
  proliferation of C4-2B MR cells: reduced proliferation of the cells in a dose dependent manner more extensively than treatment with ISIS 554221
AR full-length mRNA; dose 5.0 nM
  Percent inhibition of AR full-length mRNA: 46%
AR full-length mRNA; dose 16.7 nM
  Percent inhibition of AR full-length mRNA: 69%
AR full-length mRNA; dose 50.0 nM
  Percent inhibition of AR full-length mRNA: 86%
[8]; dose 5.0 nM
  Percent inhibition of AR splice variant, V7: 20%
[8]; dose 16.7 nM
  Percent inhibition of AR splice variant, V7: 4%
[8]; dose 50.0 nM
  Percent inhibition of AR splice variant, V7: 23%
CWR22-RV1 cells; dose 5.0 nM
  Percent inhibition of cell proliferation: 15%
CWR22-RV1 cells; dose 16.7 nM
  Percent inhibition of cell proliferation: 13%
CWR22-RV1 cells; dose 50.0 nM
  Percent inhibition of cell proliferation: 38%
AR mRNA; free uptake 0.04-5.00 μM
  AR mRNA expression: inhibited AR mRNA expression more potently than ISIS 554221
AR mRNA; dose 0.04 μM
  Percent inhibition of AR full-length mRNA: 10%
AR mRNA; dose 0.20 μM
  Percent inhibition of AR full-length mRNA: 35%
AR mRNA; dose 1.00 μM
  Percent inhibition of AR full-length mRNA: 52%
AR mRNA; dose 5.00 μM
  Percent inhibition of AR full-length mRNA: 55%
C4-2B cells; dose 0.04 μM
  Percent inhibition of cell proliferation: 0%
C4-2B cells; dose 0.20 μM
  Percent inhibition of cell proliferation: 14%
C4-2B cells; dose 1.00 μM
  Percent inhibition of cell proliferation: 35%
C4-2B cells; dose 5.00 μM
  Percent inhibition of cell proliferation: 37%

## ISIS 584468: antisense compound targeted to human AR (CATTGTACTATGCCAG; 3-10-3 (S)-cEt gapmer, further chemistry not given here)
testosterone
  Serum testosterone level: 13.6 ng/mL
[1]
  Body Wt: 2.5 kg
  Heart weight: 8.3 g
  Kidney weight: 13 g
  Liver weight: 60 g
  Mesenteric lymph nodes weight: 3.8 g
  Spleen weight: 4.1 g
[2]
  ALT: 46 IU/L
  AST: 52 IU/L
  Albumin: 4.0 g/dL
[3]
  HCT: 45%
  Hemoglobin: 13.5 g/dL
  Platelets: 408000 µL
  RBC: 5.9e+06 µL
  WBC: 11100 µL
[4]
  Plasma BUN: 22.2 mg/dL
  Plasma Creatinine: 0.78 mg/dL
[5]
  Urine protein/creatinine ratio: 0.00
[6]
  C3 (% of baseline): 111 % of baseline
  CRP: 1.3 mg/dL
[7]
  K/L ratio: 5.2
  Oligonucleotide concentration, Kidney: 2441 μg/g tissue
  Oligonucleotide concentration, Liver: 474 μg/g tissue

## TTGATTTAATGGTTGC [ISIS 579671] (cEt/MOE gapmer chemistry, further chemistry not given here)
testosterone; 40 mg/kg
  Serum testosterone level: 7.3 ng/mL
[1]
  Body Wt: 2.4 kg
  Heart weight: 8.8 g
  Kidney weight: 14 g
  Liver weight: 62 g
  Mesenteric lymph nodes weight: 2.5 g
  Spleen weight: 3.2 g
[2]
  ALT: 56 IU/L
  AST: 53 IU/L
  Albumin: 4.0 g/dL
[3]
  HCT: 42%
  Hemoglobin: 12.5 g/dL
  Platelets: 438000 µL
  RBC: 5.4e+06 µL
  WBC: 10000 µL
[4]
  Plasma BUN: 22.7 mg/dL
  Plasma Creatinine: 0.74 mg/dL
[5]
  Urine protein/creatinine ratio: 0.00
[6]
  C3 (% of baseline): 101 % of baseline
  CRP: 4.5 mg/dL
[7]
  K/L ratio: 3.0
  Oligonucleotide concentration, Kidney: 2576 μg/g tissue
  Oligonucleotide concentration, Liver: 871 μg/g tissue

## TGATTTAATGGTTGCA [ISIS 569221] (cEt/MOE gapmer chemistry, further chemistry not given here)
testosterone; 40 mg/kg
  Serum testosterone level: 8.8 ng/mL
[1]
  Body Wt: 2.5 kg
  Heart weight: 8.5 g
  Kidney weight: 14 g
  Liver weight: 68 g
  Mesenteric lymph nodes weight: 3.5 g
  Spleen weight: 3.3 g
[2]
  ALT: 48 IU/L
  AST: 73 IU/L
  Albumin: 4.0 g/dL
[3]
  HCT: 45%
  Hemoglobin: 12.9 g/dL
  Platelets: 406000 µL
  RBC: 5.6e+06 µL
  WBC: 11100 µL
[4]
  Plasma BUN: 20.2 mg/dL
  Plasma Creatinine: 0.86 mg/dL
[6]
  C3 (% of baseline): 91 % of baseline
  CRP: 4.9 mg/dL
[7]
  Oligonucleotide concentration, Kidney: 1372 μg/g tissue
  Oligonucleotide concentration, Liver: 966 μg/g tissue

## TCTTATGTTTCCGAACCGTT (sugars from the 5' end e5 d10 e5, backbone and methylation of C not given here) [ISIS 347526, reference compound]
full-length AR
  levels of full-length AR (Western analysis): did not reduce protein levels
AR-V7
  levels of AR-V7 (Western analysis): did not reduce protein levels
AR full-length mRNA; dose 5.0 nM
  Percent inhibition of AR full-length mRNA: 3%
AR full-length mRNA; dose 16.7 nM
  Percent inhibition of AR full-length mRNA: 4%
AR full-length mRNA; dose 50.0 nM
  Percent inhibition of AR full-length mRNA: 0%
[8]; dose 5.0 nM
  Percent inhibition of AR splice variant, V7: 0%
[8]; dose 16.7 nM
  Percent inhibition of AR splice variant, V7: 0%
[8]; dose 50.0 nM
  Percent inhibition of AR splice variant, V7: 10%
CWR22-RV1 cells; dose 5.0 nM
  Percent inhibition of cell proliferation: 0%
CWR22-RV1 cells; dose 16.7 nM
  Percent inhibition of cell proliferation: 0%
CWR22-RV1 cells; dose 50.0 nM
  Percent inhibition of cell proliferation: 0%
